Experiments:
[1] = tested on: tonic hind limb extensor convulsions; experiment: Maximal electroshock seizure threshold (MEST) test in the mouse; settings: for % change from vehicle (CC50) / CC50 ± SEM: mouse
Procedure: The efficacy of 6-OH CBDV was tested in a mouse model of generalised seizure, the maximal electroshock seizure threshold (MEST) test.
The maximal electroshock seizure threshold (MEST) test is widely utilized preclinically to evaluate pro- or anti-convulsant properties of test compounds (Loscher et al., 1991).
In the MEST test the ability of a drug to alter the seizure threshold current required to induce hind limb tonic extensor convulsions is measured according to an “up and down” method of shock titration (Kimball et al., 1957). An increase in seizure threshold is indicative of anti-convulsant effect.
The ability of a test compound to alter the stimulus intensity, expressed as current (mA), required to induce the presence of tonic hind limb extensor convulsions, is assessed in the MEST.
Naïve mice were acclimatised to the procedure room in their home cages for up to 7 days, with food and water available ad libitum.
All animals were weighed at the beginning of the study and randomly assigned to treatment groups based on a mean distribution of body weight across groups.
The first animal within a treatment group was given a shock at the expected or estimated CC50 current. For subsequent animals, the current was lowered or raised depending on the convulsions outcome from the preceding animal.
Data generated from each treatment group were used to calculate the CC50±SEM values for the treatment group.
Vehicle: (5% ethanol, 5% solutol, 90% Saline) was prepared as follows: 2 mL of ethanol, 2 mL of solutol were warmed to 60° C., in 36 mL of saline (1:1:18).
The test compound, alpha 6-OH CBDV was prepared according to the method described in Example 1. 6-OH CBDV was administered at 3, 10 and 30 mg/kg (i.p.) in a 1:1:18 ethanol:soluto:0.9% saline formulation.
6-OH CBDV effects were also calculated as percentage change in CC50 from the vehicle control group.
Significant difference between drug-treated animals and controls were assessed according to Litchfield and Wilcoxon (1949).

[2] = tested on: tonic hind limb extensor seizure; experiment: Supramaximal electroshock seizure (MES) test in the mouse; assay type: in vivo
Text: The supramaximal electroshock seizure ([…]) test is widely utilized preclinically to evaluate anti-convulsant properties of molecules and standard anti-epileptic drugs (Loscher et al., 1991).
The MES test is a very stringent model in which mice receive a predetermined high-level electrical stimulus of sufficient intensity to reliably produce tonic hindlimb extensor seizures in 100% of control animals. As such the MES test is a rigorous evaluation of anticonvulsant activity (Swinyard, 1985).
Animals were dosed i.p. according to treatment group.
The vehicle (10 ml/kg i.p. 60 min pre-treatment time) was 1:1:18 vehicle 5% ethanol, 5% kolliphor EL, 90% saline.
The test compound, 6-OH CBDV was administered at doses of 3, 10, 30, and 100 mg/kg given at 10 ml/kg i.p. 60 min pre-treatment time.
The positive control valproate was used at 250 mg/kg (10 ml/kg i.p. 30 min pre-treatment time).
Induction of seizure is measured as an all-or-nothing effect scored as either present (+) or absent (0) for each animal.
Data was collected by an observer unaware of the treatment for each animal and was expressed as the number of +'s or 0's for each treatment group.
The percentage inhibition of relevant vehicle treated group (the protection relative to vehicle treated controls) was then generated.
Significant differences between individual treatment groups and vehicle-treated groups were assessed using 2-tailed Fisher's Exact Probability test (p<0.05 considered significant).

[3] = 250 mg/kg i.p., 30 min pre-treatment
[4] = 3 mg/kg i.p., 15 min pre-treatment
[5] = 10 mg/kg i.p., 15 min pre-treatment
[6] = 30 mg/kg i.p., 30 min pre-treatment

CN1C(=O)CN=C(c2ccccc2)c2cc(Cl)ccc21 [Diazepam, diazepam, reference compound]
% change from vehicle (CC50) ([1]; 2.5 mg/kg i.p., 30 min pre-treatment): 124%

CCCC(CCC)C(=O)[O-].[Na+] [Valproate, sodium valproate, reference compound]
% change from vehicle (CC50) [1, 3]: 997%
% change from vehicle [2, 3]: 100%
Induction of seizure (present/absent) ([2]; 250 mg/kg i.p., 30 minutes before the test): all animals were scored as not having a seizure

C=C(C)[C@@H]1CC(O)C(C)=C[C@H]1c1c(O)cc(CCC)cc1O (stereo partly drawn) [6-OH CBDV, Alpha 6-hydroxy cannabidivarin]
% change from vehicle (CC50) [1, 4]: 111%
CC50 ± SEM [1, 4]: 54.2 ± 1.4 mA
% change from vehicle (CC50) [1, 5]: 147%
CC50 ± SEM [1, 5]: 63.5 ± 3.4 mA
% change from vehicle (CC50) [1, 6]: 260%
CC50 ± SEM [1, 6]: 92.5 ± 0.4 mA
Effect on MEST (seizure threshold) across doses ([1]; mouse, 3, 10 and 30 mg/kg i.p.): dose-related increase in MEST
% change from vehicle ([2]; 3 mg/kg i.p., 60 min pre-treatment): 20%
% change from vehicle ([2]; 10 mg/kg i.p., 60 min pre-treatment): 20%
% change from vehicle ([2]; 30 mg/kg i.p., 60 min pre-treatment): 100%
Induction of seizure (present/absent) ([2]; 30 mg/kg i.p., 60 minutes before the test): enabled all mice to withstand seizures
% change from vehicle ([2]; 100 mg/kg i.p., 60 min pre-treatment): 100%
Induction of seizure (present/absent) ([2]; 100 mg/kg i.p., 60 minutes before the test): enabled all mice to withstand seizures

Source: patent US11590087B2, “Cannabidiol-type cannabinoid compound” (GW Research Limited, priority 2019, dated 2023)
